One data set relates to HSV-1. Briefly: Plaque reduction assay in vero cells, HSV-1. The conditions noted are these: Human alphaherpesvirus 1, 48 hour incubation, read-out: ID50 HVS-1. The format is cell-based, Herpes simplex virus. As for the experimental part:
(§1) Herpes simplex virus (HSV) strains were grown and titered at 37°C in vero cells (African Green Monkey Kidney cells) and used for virus work before the tenth passage.
(§2) Cells were grown and maintained in Earle's Minimum Essential Medium (EMEM), Gibco Laboratories, supplemented with 0.75% sodium bicarbonate, 2mM 1-glutamine, Pen-strep. and 5-10% fetal calf serum.
(§3) The titer of HSV strains is determined by a plaque titration method (Roizman and Roane, Virology, 115:75-79, 1961). Tissue culture 24-well petri dishes are seeded with cells and used for assays when approximately 75% monolayer. Volumes (0.1ml) of logarithmic dilutions of the virus strain are inoculated onto each of triplicate wells, and absorbed for one hour with intermittent shaking. […] The number of plaques is counted, the triplicate is averaged, and the number of plaque-forming units per ml is calculated.
(§4) The compounds are tested for activity against the herpes simplex stains using a stock solution of each compound freshly prepared. […] The antiviral efficacy of each compound is determined using the plaque reduction assay described above. […] After a 48-hour incubation period, at 37°C in a 5% CO2 atmosphere, the overlay medium is removed, the cells are stained as described above, and plaques are counted. The counts of triplicate wells are averaged, and the number of plaques in the presence of each drug dilution are calculated. […]
Background: In a plaque reduction assay, fewer plaques than in the control indicate reduced infectivity or spread.

A further data set relates to HSV-2. Briefly: Plaque reduction assay in vero cells, HSV-2. The conditions noted are these: Human alphaherpesvirus 2, 48 hour incubation, read-out: ID50 HVS-2. The format is cell-based, Herpes simplex virus. On the procedure: as §1, §2, §3, §4
In data set [1] the test system is Herpes simplex virus-1 (HL-34 strain). Briefly: HSV-1 systemic infection in mice, survival at 21 days. The class given is in vivo. To be noted: i.p.; for Survival: BID for 5 consecutive days, from 3 hours post-infection, 21 days. As for the experimental part: Groups of ten mice were inoculated intraperitoneally with from 200 to 600 PFU/0.2ml of Herpes simplex virus-1 (HL-34 strain). Different doses of test compound were administered to separate groups of animals on a BID basis for five consecutive days commencing three hours after inoculation. Treatment was by an intraperitoneal route. The experiment was teminated 21 days post inoculation and the number of survivals in each group was counted. The mean survival time (MST, days) was calculated.

The subject of a further data set is Herpes simplex virus - 2. Put plainly: Survival of mice inoculated with Herpes simplex virus-2, 21 day protocol. The class given is in vivo. As for the experimental part:
A preferred example of one of these compounds, known as (S)-HPMPA (Formula 4') was disclosed by DeClercq, et al., in Nature, 1986, 323, pp. 464-467 and earlier by Holy, et al., Nucleic Acids Research, Symposium Series No. 14, 1984, pp. 277-278. Phosphonate compounds which are HPMPA analogs are described in South African Patent 1987/8607. […] In a 21 day protocol 30% of a group of animals treated i.p. with 50 mg/kg/day of (S)-HPMPA survived. [drawing 4]

Another data set relates to MuLV. Briefly: UV-XC plaque assay in SC-1 cells, MuLV. The format is cell-based, murine leukemia virus. The conditions noted are these: Virus MuLV, Cell-line SC-1; read-out: ID50 (the source's name). As for the experimental part: (§5) The compounds were evaluated for antiviral activity against murine leukemia virus (MuLV) strains using the UV-XC plaque assay (Rowe, et al., Virology, 42:1136, 1970).
(§6) The MuLV strains were grown in feral mouse cells (SC-1) and used for antiviral tests using the UV-XC plaque assay. Briefly, SC-1 cells are grown as monolayers in 4-well tissue culture plates and inoculated with approximately 50-100 plaque forming units of MuLV in 0.5 ml of 5% EMEM containing 20 µg/ml DEAE/Dextran. After 1 hour adsorbtion, the inoculum is removed and 5 ml of 5% EMEM containing three-fold dilutions of the appropriate drug are added. Five days later, the cultures are UV-irradiated with an ultraviolet lamp and rat XC sarcoma cells are added to the cultures. Three-four days after UV-irradiation, the cell cultures are stained with Giemsa stain and the plaques are enumerated. Antiviral activity is expressed in terms of the reduction in the mean number of UX-XC plaques counted in the drug treated, virus-infected cultures compared with mean number of plaques counted in untreated, virus-infected control cultures.
(§7) This compound was evaluated for anti-retroviral activity by the methods described in Examples 43 and 44. AZT controls were run simultaneously to confirm the validity of the test.

A further data set deals with HIV. Briefly: HIV assay in MT-4 cells. The class given is cell-based. The conditions noted are these: Virus HIV, Cell-line MT-4; read-out: ID50 (the source's name). As for the experimental part: as §7
Another data set has as its system HIV (LAV strain). Put plainly: HIV in vitro assay in CEM cells, p-24 gag protein ELISA. The format is cell-based. As for the experimental part:
The HIV in vitro assay described as follows was used: The anti-HIV/LAV activity is measured in cultures of CEM-F cells.
Background: An ELISA detects its analyte on a solid surface through an enzyme-linked reagent.

The next data set has as its system SC-1. The format is cell-based. To be noted: mouse, sc-1 cells.
In a further data set the test system is R-MuLV. Put plainly: UV-XC plaque assay in SC-1 cells, R-MuLV. The class given is cell-based, murine leukemia virus. On the procedure: as §5, §6
The mark [2] stands for this setting: Murine leukemia virus, SC1, UV-XC plaque assay, SC-1 cells, read-out: ID50 R-MuLV.

Converted amounts (≈) assume the structure as drawn. Structures can show the parent of a compound that is named as a salt. Where two headings read alike, the source gives them in different places.

Consider `Nc1nc2c(ncn2COCOCP(=O)(O)O)c(=O)[nH]1` [Compound 8, 9-[3-(Phosphonomethoxy)methoxymethyl]guanine disodium salt], for which the values for the IC50 with HSV-1 and in the data set with HSV-2 were 2.6 µg/mL and 11 µg/mL, respectively. For the same molecule, the Survival in [1] (Dose 10 mg/kg/d) is 3/10; in data set [1] (Dose 100 mg/kg/d) it was 9/10; in data set [1] (Dose 300 mg/kg/d), 10/10. The “activity compared with ACV in vivo (in words)” value in [1] (HSV-1 systemic infection in mice) was “equally as active as ACV”.
For the molecule `Nc1ncnc2c1ncn2C[C@@H](CO)OCP(=O)(O)O` [(S)-HPMPA], the “activity in mice inoculated with Herpes simplex virus - 2 (in words)” value in the data set on Herpes simplex virus - 2 (in applicant's hands) is given as “only slightly active”. Also, in the data set with Herpes simplex virus - 2 (mice inoculated with Herpes simplex virus - 2, i.p. 50 mg/kg/day, 21 day protocol), the survived was 30%.
The term CC50 denotes the concentration at which the toxic effect on the cells reaches its halfway point. As for “9-[2,3-Dideoxy-2,3-didehydro-4-β-phosphonomethoxy-β-D-erythrofuranosyl]adenine ammonium salt [Example 50]”, the IC50 in the data set with MuLV was below 100 nM; with HIV, 1500 nM; in the data set with HIV (LAV strain) (Virus HIV, Cell-line CEM, read-out: ID50 (the source's name)), 45000 nM; in the data set on R-MuLV (Virus MuLV-R, Cell-line SC-1, read-out: ID50 (the source's name)) it was 10 nM. In addition, the 50% cytotoxic concentration (CC50) in the data set with SC-1 was above 100000 nM.
As to `Cc1cn(C2C=CC(OCP(=O)(O)O)O2)c(=O)[nH]c1=O` [Compound 25, 1-[2,3-Dideoxy-2,3-didehydro-4-phosphonomethoxy-beta-D-erythrofuranosyl]thymine disodium salt], the IC50 with HIV (LAV strain) (Human immunodeficiency virus 1, CCRF-CEM, 192 h, CEM-F cells, 8 days, p-24 gag protein ELISA, read-out: ID50 HIV) is 1.8 µg/mL; in the data set on R-MuLV (setting [2]), 0.3 µg/mL.
On to `Cc1cn([C@H]2C[C@H](N=[N+]=[N-])[C@@H](CO)O2)c(=O)[nH]c1=O` [AZT, reference compound], for which the IC50 in the data set on HIV (LAV strain) (Human immunodeficiency virus 1, CCRF-CEM, 192 h, read-out: ID50 HIV) is 0.1 µg/mL; in the data set on R-MuLV (setting [2]) it was 0.05 µg/mL.
As to `Nc1nc2c(ncn2COCCO)c(=O)[nH]1` [ACV, Acyclovir, reference compound], the IC50 in the data set with HSV-1 and with HSV-2 was 0.5 µg/mL (≈ 2.22 µM) throughout. For the same molecule, the Survival in data set [1] (Dose 100 mg/kg/d) was 7/10; in [1] (Dose 200 mg/kg/d) it was 6/7.

(Values after patent EP0398231B1, “Nucleoside analogs” (INSTITUTE OF ORGANIC CHEMISTRY AND BIOCHEMISTRY OF THE …, priority 1989, dated 1990).)
